Source: US9995734B2, “Human T cell line assay for evaluating the immunologic identity of glatiramer acetate preparations” (Mylan Inc., priority 2013, dated 2018)

Tested on: Donor 4 COP T-Cell Lines
Experiment: ATP proliferation assay (CellTiter Glo), Donor 4 COP T-cell lines, incl. reactivity to non-canonical GA peptides
Format: cell-based, human
Conditions: for luminescent ATP proliferation assay, Mean RLU: 205-1H7; for luminescent ATP proliferation assay, Mean RLU / Mean RLU: Day 59, 4 days incubation; for Mean, ATP proliferation assay: Cell Line 205-1F4; for Mean RLU: T-Cell Line 205-1H11; for COP 10 μg/mL, ATP proliferation assay: Day 13

Q: What does the source list for glatiramer acetate [COP]?
A: luminescent ATP proliferation assay, Mean RLU (1 μg/mL, 0 μg/mL 3382): 13131 RLU; luminescent ATP proliferation assay, Mean RLU (10 μg/mL, 0 μg/mL 3382): 175652 RLU; luminescent ATP proliferation assay, Mean RLU (30 μg/mL, 0 μg/mL 3382): 190750 RLU; Mean, ATP proliferation assay (Day 50, 1 μg/mL): 47254; Mean, ATP proliferation assay (Day 50, 3 μg/mL): 169021; Mean, ATP proliferation assay (Day 50, 10 μg/mL): 213196; Mean, ATP proliferation assay (Day 58, 3 μg/mL): 21031; Mean, ATP proliferation assay (Day 58, 10 μg/mL): 31423; Mean, ATP proliferation assay (Day 58, 30 μg/mL): 31323; Mean, ATP proliferation assay (Day 58, 100 μg/mL): 31188; Mean RLU (1 μg/mL COP): 12243 RLU; Mean RLU (10 μg/mL COP): 147464 RLU; Mean RLU (30 μg/mL COP): 112673 RLU; Reactivity (proliferation), Mean (T-cell line 205-1B4, 1 μg/mL antigen, No Antigen 830): 1522 RLU; Reactivity (proliferation), Mean (T-cell line 205-1B4, 3 μg/mL antigen, No Antigen 830): 5501 RLU; Reactivity (proliferation), Mean (T-cell line 205-1B4, 10 μg/mL antigen, No Antigen 830): 11273 RLU; COP 10 μg/mL, ATP proliferation assay (T-cell line 205-1B4, 10 μg/mL): 84937 RLU; COP 10 μg/mL, ATP proliferation assay (T-cell line 205-1B7, 10 μg/mL): 74147 RLU; Reactivity (proliferation), Mean (T-cell line 205-1C4, 1 μg/mL antigen, No Antigen 4464): 8859 RLU; Reactivity (proliferation), Mean (T-cell line 205-1C4, 3 μg/mL antigen, No Antigen 4464): 26612 RLU; Reactivity (proliferation), Mean (T-cell line 205-1C4, 10 μg/mL antigen, No Antigen 4464): 41287 RLU; COP 10 μg/mL, ATP proliferation assay (T-cell line 205-1C4, 10 μg/mL): 69861 RLU; COP 10 μg/mL, ATP proliferation assay (T-cell line 205-1D1, 10 μg/mL): 63419 RLU; COP 10 μg/mL, ATP proliferation assay (T-cell line 205-1E1, 10 μg/mL): 44198 RLU; COP 10 μg/mL, ATP proliferation assay (T-cell line 205-1F2, 10 μg/mL): 71947 RLU; COP 10 μg/mL, ATP proliferation assay (T-cell line 205-1F4, 10 μg/mL): 33143 RLU; Proliferation (luminescent ATP assay), Mean (T-cell line 205-1F4, Day 71, 1 μg/mL antigen, autologous B-LCL): 47254; Proliferation (luminescent ATP assay), Mean (T-cell line 205-1F4, Day 71, 3 μg/mL antigen, autologous B-LCL): 169021; Proliferation (luminescent ATP assay), Mean (T-cell line 205-1F4, Day 71, 10 μg/mL antigen, autologous B-LCL): 213196; COP 10 μg/mL, ATP proliferation assay (T-cell line 205-1G3, 10 μg/mL): 54211 RLU; COP 10 μg/mL, ATP proliferation assay (T-cell line 205-1H1, 10 μg/mL): 29824 RLU; Reactivity (proliferation), Mean (T-cell line 205-1H3, 1 μg/mL antigen, 0 μg/mL 4121.0): 32122.0; Reactivity (proliferation), Mean (T-cell line 205-1H3, 3 μg/mL antigen, 0 μg/mL 4121.0): 49585.0; Reactivity (proliferation), Mean (T-cell line 205-1H3, 10 μg/mL antigen, 0 μg/mL 4121.0): 60878.3; COP 10 μg/mL, ATP proliferation assay (T-cell line 205-1H3, 10 μg/mL): 55518 RLU; COP 10 μg/mL, ATP proliferation assay (T-cell line 205-1H4, 10 μg/mL): 50307 RLU; Reactivity (proliferation), Mean (T-cell line 205-1H5, 1 μg/mL antigen, No Antigen 749): 2375 RLU; Reactivity (proliferation), Mean (T-cell line 205-1H5, 3 μg/mL antigen, No Antigen 749): 7182 RLU; Reactivity (proliferation), Mean (T-cell line 205-1H5, 10 μg/mL antigen, No Antigen 749): 8580 RLU; COP 10 μg/mL, ATP proliferation assay (T-cell line 205-1H5, 10 μg/mL): 57608 RLU; Proliferation (luminescent ATP assay), Mean (T-cell line 205-1H7, 1μg/mL antigen, after seven stimulations, 0 μg/mL 3382): 13131 RLU; Proliferation (luminescent ATP assay), Mean (T-cell line 205-1H7, 10 μg/mL antigen, after seven stimulations, 0 μg/mL 3382): 175652 RLU
